Laboratory results as given in patent US10004253B1, “Method for increasing the health condition of crustaceans in aquaculture, survival rate and pigmentation” (priority 2017, dated 2018).

Tests used:
P. monodon shrimp = assay: Total pigment and Astaxanthin enantiomers deposited, commercial ponds, Example 7; assay type: in vivo; details: feed with 60 ppm, sampled at three grams weight, lyophilized
Description: The concentration of total pigment in crustacean specimens extract was carried out by UV/VIS spectrophotometric methods measurement absorbance at 470 nm (A 1%=2100 in Hexane).
The Astaxanthin enantiometers deposited by the crustaceans specimens, or from its different organs, were quantified by HPLC after derivatization into the corresponding dicamphanates (Vecchi and Muller 1979).
7. —Comparison of the different Astaxanthin enantiomers deposited by P. monodon that were given the following three different diets: commercial feed as control; commercial feed containing 120 ppm of Lutein or Zeaxanthin Long Chain Diesters Concentrate; and commercial feed that contained 60 ppm of synthetic Astaxanthin (Carophyll Pink). […]
At three grams weight, the ponds were sampled, the specimens were lyophillized and the dehydrated samples were ground and analyzed.
The concentration of total pigment in the crustacean specimens extract was carried out by UV/Vis spectrophotometric methods measurement absorbance at 470 nm (A 1%=2100 in hexane).
The analysis of Astaxanthin R/S enantiomers deposited by the crustacean specimens, were quantified by HPLC after derivatization into the corresponding dicamphanates (Vecchi and Muller 1979), in order to differentiate the Astaxanthin enantiomers.

white shrimp L. vannamei = assay: Different sources and doses of carotenoids in balanced feed, 60 day treatment, Example 6; assay type: in vivo; details: 75 ppm in feed
Description: 6. —Effects of different sources and doses of carotenoids in the balanced feed, growout, survival, and deposition of pigments in white shrimp L. vannamei. The following is a review of the results obtained regarding the dosing of Lutein/Zeaxanthin Long Chain Diesters in the feed, as compared to feed that contained synthetic Astaxanthin (Carophyll Pink). The average survival and final weight results of the experimental work with shrimp L. vannamei results, obtained after a 60 day treatment, are shown in Table V: […]

CC1=C(/C=C/C(C)=C/C=C/C(C)=C/C=C/C=C(C)/C=C/C=C(C)/C=C/C2=C(C)C(=O)[C@@H](O)CC2(C)C)C(C)(C)C[C@H](O)C1=O [ROCHE Astaxanthin, Astaxanthin]
Concentration of total pigment in specimens extract (UV/Vis 470 nm) (P. monodon shrimp): 152.5 ppm | FINAL WEIGHT grs (white shrimp L. vannamei): 7.77 grs | SURVIVAL % (white shrimp L. vannamei): 63.33% | ASTAX. IN HEAD (hepathopanchreas) (white shrimp L. vannamei; HPLC): 29.2 micrograms of Astaxanthin per gram of tissue | ASTAX. IN MUSCLE (white shrimp L. vannamei; HPLC): 11.4 micrograms of Astaxanthin per gram of tissue | ASTAX. IN SHELL (carapace) (white shrimp L. vannamei; HPLC): 75.1 micrograms of Astaxanthin per gram of tissue
